Common to all, as to test: NCI anticancer screen, dose series, 48 h
The test system of experiment [1] is HCT-15 colon.
Experiment [2] has as its system SW-620 colon.
For experiment [3], the system named is OVCAR-8 ovarian.
For experiment [4], the system named is OVCAR-5 ovarian.
The subject of experiment [5] is A498 renal.
In experiment [6] the test system is HS 578T breast.
Experiment [7] deals with PC-3 prostate.
Experiment [8] deals with NCI/ADR-RES ovarian.

Each structure is given as a SMILES string.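 Method: 48-hour compound exposure of cells in 96-well plates, five concentrations, linear interpolation of endpoints. Abbreviation: GI50, concentration required for 50% inhibition of growth. Definition used: TGI = concentration required for complete inhibition of growth.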

Regarding `CCCCCCCCCCCCCCCC1=NC(C)(C)CN1C(C)C`, the GI50 in experiment [1] was 1.47 µM; in experiment [2] it was 1.52 µM; in experiment [3], 1.72 µM; in experiment [4] it was 1.55 µM; in experiment [5], 2.41 µM; in experiment [6] it was 1.62 µM. For the same compound, the GI50 in experiment [7] is 1.37 µM; in experiment [8] it was 1.78 µM. Besides, the TGI in experiment [1] was determined as 2.79 µM; in experiment [2] it was 2.85 µM; in experiment [3], 3.58 µM; in experiment [4], 2.93 µM; in experiment [5], 6.24 µM; in experiment [6], 3.87 µM. For the same compound, the TGI in experiment [7] came out at 3.68 µM; in experiment [8], 4.33 µM.

On to `Cc1cc(I)cc(CN(C)CCCN2CCN(C)CC2)c1O`, for which the GI50 in experiment [1] was 21.1 µM; in experiment [2], 24.2 µM; in experiment [3] it was 80.8 µM; in experiment [4] it was 78.7 µM; in experiment [5], 23.6 µM; in experiment [6] it was 23.6 µM. For the same compound, the values for the GI50 in experiment [7] and in experiment [8] were 52.2 µM and 77.8 µM, respectively. Besides, the TGI was 59 µM in experiment [1]; greater than 67.7 µM in experiment [2]; greater than 100 µM in experiment [3]; greater than 100 µM in experiment [4]; 54.2 µM in experiment [5]; greater than 68.1 µM in experiment [6]. In addition, the TGI in experiment [7] and in experiment [8] was greater than 100 µM throughout.

With `Cc1cc(Nc2cc(N)ncn2)c(=O)n2c1C(=O)NC21CCCCC1`, the GI50 in experiment [1] was greater than 100 µM; in experiment [2], greater than 100 µM; in experiment [3], greater than 100 µM; in experiment [4], greater than 100 µM; in experiment [5], 50.7 µM; in experiment [6] it was 54.3 µM. In addition, the GI50 in experiment [7] and in experiment [8] was greater than 100 µM throughout. Besides, the TGI in experiment [1], in experiment [2], in experiment [3], in experiment [4], in experiment [5] and in experiment [6] was greater than 100 µM each time. Moreover, the TGI in experiment [7] and in experiment [8] was greater than 100 µM each time.

As to `CC(O)c1cc(C(=O)N[C@@H](C)Cn2ccc(-c3ccc(C#N)c(Cl)c3)n2)n[nH]1` (some centres undefined), the GI50 was greater than 100 µM in experiment [1]; greater than 100 µM in experiment [2]; 28.7 µM in experiment [3]; greater than 100 µM in experiment [4]; 3.51 µM in experiment [5]; 62.7 µM in experiment [6]. Further, the GI50 was 22.1 µM in experiment [7] and greater than 100 µM in experiment [8]. In addition, the TGI in experiment [1] was greater than 100 µM; in experiment [2] it was greater than 100 µM; in experiment [3], greater than 100 µM; in experiment [4], greater than 100 µM; in experiment [5], 55.9 µM; in experiment [6], greater than 100 µM. In addition, the TGI in experiment [7] and in experiment [8] was greater than 100 µM throughout.

On to `CN(C)CCCn1c(-c2nonc2N)nc2cnccc21`, for which the GI50 in experiment [1] is greater than 25 µM; in experiment [2], greater than 25 µM; in experiment [3], greater than 25 µM; in experiment [4] it was greater than 25 µM; in experiment [5], 12 µM; in experiment [6], 19.1 µM. The GI50 in experiment [7] and in experiment [8] was greater than 25 µM throughout. Besides, the TGI in experiment [1], in experiment [2], in experiment [3], in experiment [4], in experiment [5] and in experiment [6] was greater than 25 µM in each case. Further, the TGI in experiment [7] and in experiment [8] was greater than 25 µM in each case.

For the compound `C=CC(COC(c1ccccc1)(c1ccccc1)c1ccccc1)N(CC)CC` (centres undefined), the GI50 is 2.6 µM in experiment [1]; 2.32 µM in experiment [2]; 5.87 µM in experiment [3]; 6.66 µM in experiment [4]; 8.25 µM in experiment [5]; 2.21 µM in experiment [6]. Besides, the GI50 in experiment [7] is 4.02 µM; in experiment [8], 3.88 µM. Besides, the TGI was determined as 13.9 µM in experiment [1]; 7.95 µM in experiment [2]; 20.1 µM in experiment [3]; 22.1 µM in experiment [4]; 23.5 µM in experiment [5]; 9.86 µM in experiment [6]. In addition, the TGI in experiment [7] is 15.6 µM; in experiment [8] it was 18.2 µM.

Consider `Oc1ccc(N=Nc2ccccn2)c(O)c1`, for which the GI50 in experiment [1] was 0.423 µM; in experiment [2], 0.757 µM; in experiment [3] it was 1.63 µM; in experiment [4] it was 2.23 µM; in experiment [5] it was 16.7 µM; in experiment [6] it was 59.6 µM. The values for the GI50 in experiment [7] and in experiment [8] were 0.775 µM and 0.503 µM, respectively. For the same compound, the TGI in experiment [1], in experiment [2], in experiment [3], in experiment [4], in experiment [5] and in experiment [6] was greater than 100 µM each time. Also, the TGI in experiment [7] and in experiment [8] was greater than 100 µM throughout.

In the case of `CCN(Cc1c(Cl)cccc1Cl)c1ccc(CO)c(Cl)c1`, the GI50 is 10.4 µM in experiment [1]; 0.549 µM in experiment [2]; 13.7 µM in experiment [3]; less than 0.0284 µM in experiment [4]; less than 0.02 µM in experiment [5]; 15.8 µM in experiment [6]. Further, the GI50 in experiment [7] was 11.3 µM; in experiment [8] it was 11.8 µM. For the same compound, the TGI in experiment [1] came out at 23.5 µM; in experiment [2], 17 µM; in experiment [3] it was 29.7 µM; in experiment [4], 0.24 µM; in experiment [5] it was 0.0465 µM; in experiment [6], 37.9 µM. Besides, the TGI turned out to be 23.9 µM in experiment [7] and 27.3 µM in experiment [8].

As to `CCN(c1cc(C#CCN2CCOCC2)cc(C(=O)NCc2c(C)cc(C)[nH]c2=O)c1C)C1CCC(N(C)CCOC)CC1` (centres undefined), the GI50 in experiment [1], in experiment [2], in experiment [3], in experiment [4], in experiment [5] and in experiment [6] was greater than 100 µM each time. Also, the GI50 in experiment [7] and in experiment [8] was greater than 100 µM throughout. Also, the TGI in experiment [1], in experiment [2], in experiment [3], in experiment [4], in experiment [5] and in experiment [6] was greater than 100 µM each time. The TGI in experiment [7] and in experiment [8] was greater than 100 µM throughout.
